Experimental data as given in ChEMBL document CHEMBL3885861, “Open TG-GATES”.

Organism: Rattus norvegicus
Test: Open TG-GATES - Regimen: Single
Format: toxicity, organism-based, Sprague-Dawley
Design: regimen Single, gender Male, age 6 weeks
Details: in vivo, po, route gavage; for APTT / Bas / Eos / Fbg / Hb / Ht / Lym / MCV / Mono / PT / Plat / RBC / Ret / WBC / MCHC / Neu: tissue Blood; for ALP / ALT / AST / BUN / CRE / Ca / Cl / DBIL / GLC / IP / K / LDH / Na / PL / RALB / TBIL / TC / TG / TP / gamma-GTP: tissue Plasma
[1] = 0 mg/kg, 3 h, dose level Control
[2] = 0 mg/kg, 6 h, dose level Control
[3] = 0 mg/kg, 9 h, dose level Control
[4] = 0 mg/kg, 24 h, dose level Control
[5] = 100 mg/kg, 24 h, dose level Low

## O=C(O)c1cccnc1 [NIACIN]
[1]
  APTT: 24 s
  Bas: 0%
  Eos: 0.8%
  Fbg: 311.4 mg/dL
  Hb: 13.5 g/dL
  Ht: 40.1%
  Lym: 81.2%
  MCV: 63.7 fL
  Mono: 2.2%
  PT: 16.4 s
  Plat: 118.4 x10_4/uL
  RBC: 630 x10_4/ul
  Ret: 7.9%
  WBC: 80.3 x10_2/uL
  ALP: 1666.4 IU/L
  ALT: 44.8 IU/L
  AST: 68.6 IU/L
  BUN: 12.8 mg/dL
  CRE: 0.1 mg/dL
  Ca: 11 mg/dL
  Cl: 102.6 meq/L
  DBIL: 0 mg/dL
  GLC: 182.4 mg/dL
  IP: 9.1 mg/dL
  K: 4.2 meq/L
  LDH: 165 IU/L
  Na: 140.8 meq/L
  PL: 138.6 mg/dL
  RALB: 2.9 g/dL
  TBIL: 0.002 mg/dL
  TC: 80.8 mg/dL
  TG: 48.2 mg/dL
  TP: 5.7 g/dL
  gamma-GTP: 1.4 IU/L
[2]
  Bas: 0%
  Eos: 0.8%
  Fbg: 304 mg/dL
  Hb: 13.6 g/dL
  Ht: 40.5%
  Lym: 76.2%
  MCHC: 33.7%
  MCV: 62.9 fL
  Mono: 2.8%
  PT: 16.5 s
  Plat: 116.7 x10_4/uL
  RBC: 643.6 x10_4/ul
  Ret: 7.8%
  WBC: 105.2 x10_2/uL
  ALP: 1639.8 IU/L
  ALT: 37.8 IU/L
  AST: 72.2 IU/L
  BUN: 12.6 mg/dL
  CRE: 0.1 mg/dL
  Ca: 10.8 mg/dL
  Cl: 103.6 meq/L
  DBIL: 0 mg/dL
  GLC: 196.8 mg/dL
  IP: 9.5 mg/dL
  K: 4.3 meq/L
  LDH: 211.2 IU/L
  Na: 140.2 meq/L
  PL: 141 mg/dL
  RALB: 3 g/dL
  TBIL: 0.008 mg/dL
  TC: 79.2 mg/dL
  TG: 68.4 mg/dL
  TP: 5.5 g/dL
  gamma-GTP: 1 IU/L
[3]
  Bas: 0%
  Eos: 0.8%
  Fbg: 312.8 mg/dL
  Hb: 13 g/dL
  Ht: 39.1%
  Lym: 81.4%
  MCHC: 33.3%
  MCV: 62.3 fL
  Mono: 2.6%
  Neu: 13.8%
  Plat: 119.2 x10_4/uL
  RBC: 627.8 x10_4/ul
  Ret: 8%
  WBC: 95.1 x10_2/uL
  ALP: 1434.4 IU/L
  ALT: 38.4 IU/L
  AST: 70.6 IU/L
  BUN: 11.8 mg/dL
  CRE: 0.2 mg/dL
  Ca: 10.7 mg/dL
  Cl: 104 meq/L
  DBIL: 0.004 mg/dL
  GLC: 185.4 mg/dL
  IP: 9.4 mg/dL
  K: 4.2 meq/L
  LDH: 177.2 IU/L
  Na: 140.4 meq/L
  PL: 129 mg/dL
  RALB: 3 g/dL
  TBIL: 0.01 mg/dL
  TC: 74.4 mg/dL
  TG: 52.2 mg/dL
  TP: 5.5 g/dL
  gamma-GTP: 1.2 IU/L
[4]
  Bas: 0%
  Eos: 1%
  Fbg: 327.2 mg/dL
  Hb: 13.2 g/dL
  Ht: 39.3%
  Lym: 81.2%
  MCHC: 33.6%
  MCV: 63.3 fL
  Mono: 2.6%
  Neu: 14%
  PT: 16.1 s
  Plat: 120.2 x10_4/uL
  RBC: 621.2 x10_4/ul
  Ret: 7.5%
  WBC: 115.4 x10_2/uL
  ALP: 1844 IU/L
  ALT: 45 IU/L
  AST: 70 IU/L
  BUN: 15.6 mg/dL
  CRE: 0.2 mg/dL
  Ca: 10.6 mg/dL
  Cl: 104.2 meq/L
  DBIL: 0 mg/dL
  GLC: 197.2 mg/dL
  IP: 8.2 mg/dL
  K: 4.3 meq/L
  LDH: 200 IU/L
  Na: 140.4 meq/L
  PL: 147.6 mg/dL
  RALB: 3 g/dL
  TBIL: 0.002 mg/dL
  TC: 74.6 mg/dL
  TG: 104 mg/dL
  TP: 5.5 g/dL
  gamma-GTP: 1.4 IU/L
100 mg/kg, 3 h, dose level Low
  APTT: 22.6 s
  Bas: 0%
  Eos: 1%
  Fbg: 311 mg/dL
  Hb: 13.6 g/dL
  Ht: 40.7%
  Lym: 78.4%
  MCHC: 33.4%
  MCV: 65.5 fL
  Mono: 2.6%
  Neu: 16.6%
  PT: 16.2 s
  Plat: 118.2 x10_4/uL
  RBC: 621.4 x10_4/ul
  Ret: 8.2%
  WBC: 107.6 x10_2/uL
  ALP: 1552.4 IU/L
  ALT: 42.2 IU/L
  AST: 79.8 IU/L
  BUN: 13.6 mg/dL
  CRE: 0.2 mg/dL
  Ca: 10.8 mg/dL
  Cl: 105.4 meq/L
  DBIL: 0 mg/dL
  GLC: 183 mg/dL
  IP: 8.7 mg/dL
  K: 3.9 meq/L
  LDH: 196.8 IU/L
  Na: 141 meq/L
  PL: 118.4 mg/dL
  RALB: 3 g/dL
  TBIL: 0.008 mg/dL
  TC: 71 mg/dL
  TG: 27.8 mg/dL
  TP: 5.6 g/dL
  gamma-GTP: 1.4 IU/L
100 mg/kg, 6 h, dose level Low
  APTT: 22.5 s
  Bas: 0%
  Eos: 1%
  Fbg: 314 mg/dL
  Hb: 13.4 g/dL
  Ht: 40%
  Lym: 78.4%
  MCHC: 33.4%
  Mono: 3.4%
  Neu: 16.2%
  PT: 16.5 s
  Plat: 119.1 x10_4/uL
  RBC: 626.8 x10_4/ul
  Ret: 8%
  WBC: 87.9 x10_2/uL
  ALP: 1431.4 IU/L
  ALT: 38.8 IU/L
  AST: 69.8 IU/L
  BUN: 12.4 mg/dL
  CRE: 0.2 mg/dL
  Ca: 10.9 mg/dL
  Cl: 105 meq/L
  DBIL: 0.002 mg/dL
  GLC: 186 mg/dL
  IP: 8.9 mg/dL
  K: 3.8 meq/L
  LDH: 156.8 IU/L
  Na: 139.8 meq/L
  PL: 115 mg/dL
  RALB: 3 g/dL
  TBIL: 0.008 mg/dL
  TC: 64.4 mg/dL
  TG: 37.2 mg/dL
  TP: 5.5 g/dL
  gamma-GTP: 1.6 IU/L
100 mg/kg, 9 h, dose level Low
  Bas: 0%
  Eos: 0.8%
  Fbg: 305.4 mg/dL
  Hb: 13.5 g/dL
  Ht: 40.6%
  Lym: 81.6%
  MCHC: 33.3%
  MCV: 65.6 fL
  Mono: 2%
  Neu: 15.2%
  PT: 15.6 s
  Plat: 126.3 x10_4/uL
  RBC: 618.6 x10_4/ul
  Ret: 8.4%
  WBC: 88.6 x10_2/uL
  ALP: 1314.4 IU/L
  ALT: 38.8 IU/L
  AST: 70.4 IU/L
  CRE: 0.2 mg/dL
  Ca: 10.8 mg/dL
  Cl: 105.4 meq/L
  DBIL: 0.002 mg/dL
  GLC: 182.8 mg/dL
  IP: 8.9 mg/dL
  K: 4.1 meq/L
  LDH: 161.4 IU/L
  Na: 140.6 meq/L
  PL: 134 mg/dL
  RALB: 2.9 g/dL
  TBIL: 0.008 mg/dL
  TC: 73 mg/dL
  TG: 77 mg/dL
  TP: 5.5 g/dL
  gamma-GTP: 1.6 IU/L
[5]
  Bas: 0%
  Eos: 1%
  Fbg: 327.8 mg/dL
  Hb: 13.7 g/dL
  Ht: 40.6%
  Lym: 77.8%
  MCHC: 33.6%
  MCV: 64.8 fL
  Mono: 3%
  Neu: 17.2%
  PT: 16 s
  Plat: 109.3 x10_4/uL
  RBC: 627.6 x10_4/ul
  Ret: 7.6%
  WBC: 96.3 x10_2/uL
  ALP: 1716.6 IU/L
  ALT: 41.6 IU/L
  AST: 67.2 IU/L
  BUN: 16.2 mg/dL
  CRE: 0.2 mg/dL
  Ca: 10.5 mg/dL
  Cl: 104.6 meq/L
  DBIL: 0.002 mg/dL
  GLC: 192 mg/dL
  IP: 7.6 mg/dL
  K: 4.1 meq/L
  LDH: 155.4 IU/L
  Na: 139.6 meq/L
  PL: 154.2 mg/dL
  RALB: 3.1 g/dL
  TBIL: 0 mg/dL
  TC: 75.2 mg/dL
  TG: 158.4 mg/dL
  TP: 5.6 g/dL
